Tests used:
Hepa1-6 cells = assay: Hepa1-6 cell proliferation; format: cell-based; conditions: with or without regorafenib (5 μM)
Source text: FIG. 37 show anti-proliferative effect of illustrative compounds of the invention in Hepa1-6 cells.

[1] = Single and repeat dose plasma and tissue pharmacokinetics in male C57BL/6 mice; format: in vivo, mouse
Source text: Materials and methods. The study involved two arms; a single dose pharmacokinetic study and a 4-day repeated-dose pharmacokinetic study. For each arm, 56 inbred male C57BL/6 mice, aged at 6-7 week, were included. All animals were purchased from Charles River Lab (CRL, MA). Upon their arrival, they were kept in special-pathogen-free environment all the time. Briefly, they were housed in group on corncob bedding (ScottPharma, MA) in Innovive® caging system (Innovive, Calif.) on a 12-hour light-dark cycle (0700-1900) at 68-74° F., and 30-70% humidity. They were allowed continually to access water and regular rodent Purina 5001 diet (ScottPharma, MA) ad libitum and to acclimate in the facility for 5 days. Animal handling and procedures were conducted under the protocols and/or guidelines approved by the Institutional Animal Care and Use Committee (IACUC) of […] Biosciences, Inc. […] Also, 2× drug vehicle (3% CMC+0.4% Tween-20) was prepared and stored at 4° C. for a week. On the day of injection, 1 ml frozen 2× aqueous stock solution (20 mg/ml drug solution) aliquot is thawed and mix with another 1 ml 2× drug vehicle (3% Carboxymethyl cellulose+0.4% Tween 20) to prepare 10 mg/ml drug solution. A 25 g mouse would receive 250 μl of 10 mg/ml solution for a dose of 100 mg/kg. Lower concentrations can be achieved by further diluting the 10 mg/ml in 1× vehicle solution with 1× vehicle prepared with milliQ water. On each dosing day, both compound stocks and 2× vehicle were warmed to room temperature and was mixed at 1:1 ratio, given to a concentration of 10 mg/mL. Then 1: 5-fold dilutions were obtained with 1× vehicle to 2 mg/mL. Dosing volume at 10 mL/kg (final dosage: 20 mg/kg) in the morning. […] Study Design. In each group 4 male 6-7-week-old C57BL/6 mice were used. Doses were administered once daily via oral gavage for either a day (single dose arm, QD×1) or 4 consecutive days (repeated dose arm, QD×4) (FIG. 26). Blood, half of brain hemisphere, and one lobe of liver samples were collected from all animals of Day 1 (QD×1 arm) at pre-dose and 0.25, 2, 4, 8, 24 and 36 hours post dose, or Day 4 (QD×4 arm) at pre-dose and 0.25, 2, 4, 8, 24 and 48 hours post dose. Blood samples were collected by cardiac puncture. The blood samples were maintained in wet ice first and centrifuged to obtain plasma (2000×g, 4° C., 5 min). All three samples from each mouse were analyzed for either Compound I-1 or Compound I-32 contents by Integrated Analytical Solutions (Berkeley, Calif.) and the results were used for the generation of the pharmacokinetic graphs. Sample collection, storage, bioanalysis and statistical analysis. All plasma and tissue samples were analyzed by discovery grade bioanalytical method developed for estimation of each test compound in plasma and tissue samples using LC-MS/MS systems. Plasma samples were prepared as follows. Three volumes of acetonitrile containing internal standard was added to one volume of plasma to precipitate proteins. Samples were centrifuged (3000×g for 10 min) and supernatant removed for analysis by LC-MS/MS. Calibration standards and quality controls were made by preparation of a 1 mg/mL stock solution in MeOH and subsequently a series of working solutions in MeOH:water (1/1, v/v) which were spiked into blank plasma to yield a series of calibration standard samples in the range of 1.0 ng/mL to 10 μg/mL. All incurred PK/PD plasma samples were treated identically to the calibration standards and quality control samples. LC-MS/MS analysis was performed utilizing multiple reaction monitoring for detection of characteristic ions for each drug candidate, additional related analytes and internal standard. Tissue samples were prepared as follows, three volumes of PBS buffer (pH 7.4) were added to one volume of each tissue sample which was then homogenized to obtain each tissue homogenate sample. […]

[2] = Toxicokinetics in female rat plasma (4-day oral gavage study, Day 1); format: in vivo; conditions: for dose proportionality of increases in mean Cmax and AUC0-24: 100 to 300 mg/kg/day
Description: Bioanalytical and Toxicokinetic Analyses. Blood samples (approximately 0.3 mL) were collected from nonfasted toxicokinetic animals via a jugular vein on Day 1 of the dosing phase, as indicated in the following table. Samples were collected predose and approximately 1, 2, 4, and 24 hours postdose.
Blood was collected into tubes containing potassium (K2) EDTA as the anticoagulant. Samples were maintained on chilled cryoracks and were centrifuged within 1 hour of collection. Plasma was harvested into two approximately equal aliquots and stored on dry ice until placed in a freezer, set to maintain −60 to −80° C., until analyzed. Plasma samples were analyzed for Compound I-1 and Compound I-32 content using a generic Tier 1 qualified liquid chromatography-tandem mass spectrometry (LC-MS/MS) method.
In-Life Phase. Animals were dosed once daily for up to 4 days via oral gavage at a volume of 10 mL/kg. Animals in Group 2 and 3 were administered Compound I-1. Animals in Group 4 and 5 were administered Compound I-32. The control article for Group 1 was 1.5% (w/v) carboxymethyl cellulose+0.2% (v/v) Tween 20 in deionized (DI) water. The vehicle used to prepare Compound I-1 and Compound I-32 formulations was 3% (w/v) carboxymethyl cellulose+0.4% (v/v) Tween 20 in DI water.

[3] = male, C57BL/6, mouse brain, 20 mg/kg/day PO, repeat dose QD × 4
[4] = male, C57BL/6, mouse liver, 20 mg/kg PO, single dose QD × 1
[5] = male, C57BL/6, mouse liver, 20 mg/kg/day PO, repeat dose QD × 4
[6] = male, C57BL/6, mouse plasma, 20 mg/kg PO, single dose QD × 1
[7] = male, C57BL/6, mouse plasma, 20 mg/kg/day PO, repeat dose QD × 4
[8] = mouse brain, 20 mg/kg PO, single dose QD × 1
[9] = mouse brain, 20 mg/kg/day PO, repeat dose QD × 4
[10] = mouse liver, 20 mg/kg PO, single dose QD × 1
[11] = mouse liver, 20 mg/kg/day PO, repeat dose QD × 4
[12] = female rat plasma, 100 mg/kg/day oral gavage, Day 1

With `CC(C)(CCCCc1cccc(CCCCC(C)(C)C(=O)O)c1)C(=O)O` [Compound I-32, 6-[3-(5-carboxy-5-methylhexyl)-phenyl]-2,2-dimethylhexanoic acid] the effect on proliferation (Hepa1-6 cells) was “anti-proliferation effect”, the half-life ([1]; male, C57BL/6, mouse brain, 20 mg/kg PO, single dose QD × 1) was 3 h and the half-life [1, 3] was 8 h. It also gave a half-life [1, 4] of 13 h, a half-life [1, 5] of 16 h and a half-life [1, 6] of 9 h. For the same compound, the half-life [1, 7] was 9.2 h, the AUC0-t [1, 8] was 1,527 h*ng/g and the AUC0-t [1, 9] was 6,304 h*ng/g. The AUC0-t [1, 10] was 405,934 h*ng/g, the AUC0-t [1, 11] was 1.01e+06 ng·h/g and the Cmax ([2]; Wistar Han, plasma, oral, female rat, 300 mg/kg/day, Day 1, read-out: mean maximum observed concentration (Cmax)) was 406 µg/mL. The “dose proportionality of increases in mean Cmax and AUC0-24” value ([2]; female rat) was “approximately dose proportional”.
With `CC(C)(CCCCc1ccc(CCCCC(C)(C)C(=O)O)cc1)C(=O)O` [Compound I-1, 6-[4-(5-carboxy-5-methylhexyl)-phenyl]-2,2-dimethylhexanoic acid] the effect on proliferation (Hepa1-6 cells) was “anti-proliferation effect”, the Cmax [1, 3] was 169 ng/g and the half-life [1, 4] was 9.6 h. It also gave a half-life [1, 5] of 20.4 h, a half-life [1, 6] of 15.3 h and a half-life [1, 7] of 22 h. The AUC0-t ([1]; mouse brain, 20 mg/kg PO, QD × 1, value in brackets with * (reanalysis)) was “(2,091)* h*ng/g”, the AUC0-t [1, 8] was 1,183 h*ng/g and the AUC0-t ([1]; mouse brain, 20 mg/kg/day PO, QD × 4, value in brackets with * (reanalysis)) was “(3,995)* h*ng/g”. For the same compound, the AUC0-t [1, 9] was 1,220 h*ng/g, the AUC0-t ([1]; mouse liver, 20 mg/kg PO, QD × 1, timepoint 0.25 h samples after reanalysis) was “(469,726)* h*ng/g” and the AUC0-t [1, 10] was 425,184 h*ng/g. For the same compound, the AUC0-t ([1]; mouse liver, 20 mg/kg/day PO, QD × 4, timepoint 0.25 h samples after reanalysis) was “(718,455)* h*ng/g”, the AUC0-t [1, 11] was 687,414 h*ng/g and the AUC0-24 [2, 12] was 5,460,000 h*ng/mL. The Tmax [2, 12] was 2.00 h, the Tmax ([2]; female rat plasma, 300 mg/kg/day oral gavage, Day 1) was 1.00 h and the “dose proportionality of increases in mean Cmax and AUC0-24” value ([2]; female rat) was “less than dose proportional”.
